Tests used:
[1] = test system: U 178 MG, TP 410 N, TP 242 MG, TP 336 MG and A 431 cells; test: growth curves of five tumor cell lines, comparison with coumarin; assay type: cell-based, human; conditions: corresponding concentrations, up to 12 days
Experimental: (§1) The neuroblastoma cell line and the three glioblastoma cell lines were cultivated in Ham's F10 medium enriched with 10% fetal calf serum (FCS) and the usual quantity of penicillin, streptomycin (Pen/Strep) and glutamine. The epidermoidal cell line was cultivated in modified Eagle's Medium (MEM), likewise enriched with 10% (FCS) and the usual quantity of glutamine and Pen/Strep.
(§2) In each case 5×10^4 cells were plated out in T25 bottles, the untreated cells being incubated in analogous conditions as control. The cell count was microscopically determined after 3, 5, 7, 10 and 12 days.

bladder tumor cells = test: photometric cell count / mitochondrial activity; assay type: cell-based; conditions: 20 hours, increasing concentrations
Experimental: (§3) Subsequently the cell count was photometrically determined according to Alley M. C. et al., Cancer Research 48, 589-601 (1988). In the process, a colorant is added to the cells that have been mixed with medium, the colorant being so converted by cells with mitochondrial activity that a photometric determination of the cell count is possible.

[2] = test system: erythroleukemic cells (K 562); test: photometric cell count / mitochondrial activity; assay type: cell-based; conditions: 20 hours, increasing concentrations
Experimental: as §3

[3] = test system: Onco Mouse mammary glands-neoplasms; test: chemoprevention in transgenic mice (mammary glands-neoplasms); assay type: in vivo; conditions: 200 μM/ml in drinking water
Experimental: The chemopreventive properties of 7-OH-1,2-BP were tested on transgenic mice of the Onco Mouse™ type (mammary glands-neoplasms): […]

TP 336 MG cells = test: growth curve, glioblastoma cells; assay type: cell-based, human; conditions: for Cell count: 10 μM/ml
Experimental: as §1, §2

TP 242 MG cells = test: growth curve, glioblastoma cells; assay type: cell-based, human; conditions: for Cell count: 25 μM/ml
Experimental: as §1, §2

U 178 MG cells = test: growth curve, glioblastoma cells; assay type: cell-based, human; conditions: for Cell count: 25 μM/ml
Experimental: as §1, §2

LNCap cells [4] = test: growth inhibition of prostatic carcinoma cells (Table 1); assay type: cell-based, human; conditions: 250 μmol/ml, after 10 days
LNCap cells [5] = test: cell growth in combination with testosterone; assay type: cell-based, human
g-UVW cells = test: antineoplastic effect on human anaplastic astrocytoma cells (Table 1, Example 3); assay type: cell-based
Source text: The process as per Example 2 was repeated with the exception that cells of the 6-UVW line from human anaplastic astrocytoma were used and enriched in DMEM:HAM's F 12 medium (1:1) with L-glutamine and 10% FCS.

[6] = test system: U 178 MG, TP 410 N, TP 242 MG, TP 336 MG and A 431 cells; conditions: 37.5 μM/ml, 48 hours
Experimental: as §1
Untreated cells served as a control. Subsequently, the cells were incubated for 8 hours with ^3 H-thymidine. The radioactivity absorbed by the cells was measured in the usual way.

LNCap cells [7] = test: cell growth, combination with TNF; assay type: cell-based, human; conditions: 7-OH-1,2-BP 500 μM/ml; TNF 1 nM/ml; combination 500 μM/1 nM; 6 days; 3×10^4 cells/well; control 61.40 + 3.70
Source text: Various cell lines (DU-145, PC-3 and LNCaP) from prostate carcinomas were used.
Initial cell count: 3×10^4 cells/well; exposure period: DU-145, PC-3: 4 days; LNCaP: 6 days

[8] = Homo sapiens, 288 h, 25 μM/ml (Table 2), read-out: % growth inhibition compared with control after 12 days

With `O=c1ccc2ccc(O)cc2o1` [7-OH-1,2-BP, 7-hydroxy-1,2-benzopyrone] the “growth-inhibiting activity (growth curve) versus control” value [1] was “developed growth-inhibiting activity”, the “inhibition of mitochondrial activity” value (bladder tumor cells) was “a dosage-related inhibition of the mitochondrial activity occurs” and the “inhibition of mitochondrial activity” value [2] was “a dosage-related inhibition of the mitochondrial activity occurs”. The “Tumor incidence (number of mice)” value ([3]; without substance 9/28) was 3/38, the Tumor incidence % ([3]; without substance 32) was 8% and the Cell count (TP 336 MG cells; after 3 days, control 13) was 7 × 10^4. For the same molecule, the Cell count (TP 336 MG cells; after 5 days, control 25) was 11 × 10^4, the Cell count (TP 336 MG cells; after 7 days, control 39) was 22 × 10^4 and the Cell count (TP 336 MG cells; after 10 days, control 34) was 18 × 10^4. The Cell count (TP 336 MG cells; after 12 days, control 45) was 18 × 10^4, the inhibition at 10 µM (TP 336 MG cells; Homo sapiens, 288 h, 10 μM/ml (Table 2), read-out: % growth inhibition compared with control after 12 days) was 60% and the Cell count (TP 242 MG cells; after 3 days, control 10) was 4 × 10^4. For the same molecule, the Cell count (TP 242 MG cells; after 5 days, control 15) was 6 × 10^4, the Cell count (TP 242 MG cells; after 7 days, control 23) was 8 × 10^4 and the Cell count (TP 242 MG cells; after 10 days, control 49) was 10 × 10^4. For the same molecule, the Cell count (TP 242 MG cells; after 12 days, control 57) was 12 × 10^4, the inhibition at 25 µM (TP 242 MG cells; [8]) was 79% and the Cell count (U 178 MG cells; after 3 days, control 23) was 15 × 10^4. For the same molecule, the Cell count (U 178 MG cells; after 5 days, control 57) was 13 × 10^4, the Cell count (U 178 MG cells; after 7 days, control 84) was 26 × 10^4 and the inhibition at 25 µM (U 178 MG cells; [8]) was 74%. For the same molecule, the “% Growth inhibition compared with control” value (LNCap cells [4]) was 66%, the “inhibition of cell growth” value (LNCap cells [5]; 500 μM 7-OH-1,2-BP/ml medium combined with 20 nM testosterone) was “virtually complete inhibition of cell growth” and the “increase of growth inhibition by additional hormone therapy” value (LNCap cells [5]; for example testosterone) was “can be increased by additional hormone therapy”. For the same molecule, the “% Growth inhibition compared with control” value (g-UVW cells; 200 μmol/ml, after 10 days) was 40%, the “cytostatic effect on human anaplastic astrocytoma cells” value (g-UVW cells; Example 3, FIG. 2) was “has a cytostatic effect on human anaplastic astrocytoma cells” and the “cytotoxic / cytostatic effect” value [6] was “not cytotoxic for any of the cells, but cytostatic”. The Cell growth (LNCap cells [7]) was 11.0 + 1.10.

From patent US5525626A (priority 1989, dated 1996)
